Earlier results in patent publication US9848760B2, “Devices for continual monitoring and introduction of gastrointestinal microbes” (Gearbox, LLC, priority 2009, dated 2017).

Legend:
[1] = test system: enterotoxigenic Escherichia coli (ETEC); settings: ETEC infection, MIC90 level, FIG. 17
[2] = infant stool, associated with treatment
[3] = infant treated at 4 months of age, relative to reference microbial profile at 1 month of age

## CC1(C)S[C@@H]2[C@H](NC(=O)[C@H](N)c3ccccc3)C(=O)N2[C@H]1C(=O)O [AMP, ampicillin]
[1]
  MIC values: high

## COc1cc(Cc2cnc(N)nc2N)cc(OC)c1OC [TMP, trimethoprim]
[1]
  MIC values: high

## CC1(C)S[C@@H]2[C@H](NC(=O)[C@H](N)c3ccc(O)cc3)C(=O)N2[C@H]1C(=O)O [amoxicillin]
Intestinal microbes; [2]
  abundance of bacilli: increases
  abundance of gamma proteobacteria: reductions
Intestinal microbes; [3]
  bacterial composition in stool samples: altered
  total bacterial density in stool samples: decrease

## TMP/sulfamethoxazole [SXT]
[1]
  MIC values: high
